Source: US6451334B2, “Compositions and administration of compositions for the treatment of blood disorders” (priority 1997, dated 2002)
Values joined by “and” are separate entries in the source; they are usually repeats but may differ in a detail not shown here. Identical values can stand only once. Like-named read-outs stand apart in the source and are kept apart here.

Columns and labels:
bone marrow cells = conditions: continuous intravenous administration; cited from earlier work
[1] = system: system A transport of amino acids; assay: System A transport of amino acids; format: cell-based
Source text: Normal cell viability, the viability of an untransformed or uninfected cell, can be determined from analyzing the effects of the composition on one or more biological processes of the cell. Detrimental interference with one or more of these cellular processes becomes significant when the process becomes abnormal. Examples of quantitatable and qualifiable biological processes include the processes of cell division, protein synthesis, nucleic acid (DNA or RNA) synthesis, nucleic acid (principally DNA) fragmentation and apoptosis. Others processes include specific enzyme activities, the activities of the cellular transportation systems such as the transportation of amino acids by system A (neutral), system B (acidic) or system C (basic), and the expression of a cell surface protein. […] Abnormal cell division, for example, can be mitosis which occurs too rapidly, as in a malignancy, or unstably, resulting in programmed cell death or apoptosis, detected by increased DNA degradation. The determination of abnormal cell viability can be made on comparison with untreated control cells. Compositions preferably increase normal cell viability. Increased cell viability can be determined by those of ordinary skill in the art using, for example, DNA fragmentation analysis. […]

32D cells = assay: Proliferation studies using 32D cells at low IL-3; format: cell-based, murine; conditions: 32D cells, low IL-3 (0.5 U/ml), FIG. 7
Procedure: 32D cells were cultured in RPMI media with 10% fetal bovine serum (Sigma, St. Louis, Mo.), […] glutamine (GIBCO), and murine IL3 (20 U/ml) (Biosource International). Growth factor controls used included the standard concentration of IL-3 required for proliferation of these cells (25 U/ml) and a 50-fold lower concentration (0.5 U/ml), and erythropoietin (3 U/ml) or G-CSF ( U/ml), (Amgen, Thousand Oaks, Calif.). The test compounds were added at final concentrations of 1 mM. As a cell density of 2.5−10×10^5 is necessary for growth of this cell line, this density was maintained by passing the cells at three day intervals or by concentrating the cells when apoptosis occurred. Proportions of cells which were viable or apoptotic, and the fraction of cells in each part of the cell cycle was assessed by incubating the cells with Trypan blue and enumeration, and with propidium iodide incubation and FACScan analysis as previously described.
The effects of the representative compounds which have been synthesized or selected for resistance to beta oxidative metabolism and glucuronidation in stimulating γ globin gene expression in a human erythroid-like cell line and for their effects on cell growth utilizing a multi-lineage murine hematopoietic cell line, 32D. This cell line is dependent on high concentrations of IL-3 for growth. […]

[2] = system: Mononuclear cells from patients with sickle cell disease or thalassemia trait; assay: Erythroid colony (BFU-E) cultures in methylcellulose; format: cell-based, human; conditions: 0.2-0.5 mM, optimal growth factors
Procedure: Mononuclear cells from patients with sickle cell disease or thalassemia trait were isolated on Ficoll Hypague, washed, and cultured in methylcellulose media with optimal concentrations of hematopoietic growth factors IL-3, GM-CSF, Stem Cell Factor, IL6, 3 U/ml Eiythropoietin, insulin, bovine serum albumin, and 0.2-0.5 mM concentrations of test compounds of derivatives of cinnamic acid and hydrocinnamic acid. […] The following illustrates some representative cultures: […]

K562 cells = assay: Treatment of K562 cells and analysis of globin mRNA by primer extension; format: cell-based, human; conditions: for fold induction at 1000 µM: Homo sapiens, K562, 72 h, read-out: increase in γ-globin mRNA over constitutive levels in untreated control K562 cells; for stimulating γ globin compared to control cells (ranking in words) / Radioactivity Alpha Globin (α) mRNA / Radioactivity Fetal Globin (γ) mRNA / γ/α: K562 cells; for Radioactivity Alpha Globin (α) mRNA / Radioactivity Fetal Globin (γ) mRNA: phosphorimager; for γ/α: ratio of globin mRNA radioactivity
Procedure: K562 cells kindly provided by Dr. George Atweh were cultured with 10% fetal bovine serum (Sigma, St. Louis, Mo.) and RPMI media (Grand Island Biological Company, Grand Island, N.Y.) in a humidified atmosphere with 5% CO2/95% air. Compounds were tested at a final concentration of 1 mM at neutral pH and included butyric acid, phenoxyacetic acid, dimethylbutric acid, alpha-methylhydrocionamic acid, 2,3, and 4-methoxyhydrocinnamic acid, dihydrocinnamic acid, methoxycinnamic acid, methoxyacetic acid, phenylpropionic acid, amino hydrocinnamic acid, DL β- and DL-βamino-n-butyric acid, cinnamic acid, and 2 methylhydrocinnamic acid (Aldrich Chemical Company, St. Louis, Mo.). Additional compounds studied included dimethylhydroxy acetic acid, dimethylpropionic acid, dimethylphenoxyacetic acid, and dimethylmethoxyacetic acid. After three days of culture with these agents, mRNA was purified and α, β, and γ globin mRNA was analyzed by primer extension using oligonucleotide primers and quantitation on a PhosphoImager as previously described.

[3] = system: mice transgenic for a human beta globin locus YAC containing a silenced gamma globin gene; assay: In vivo experiments in mice transgenic for the human beta globin gene locus
Procedure: Three prototype compounds, methylhydrocinnamic acid (MHCA), phenoxyacetic acid (PAA), and dimethylbutyric acid PMB), were administered at doses from 100 to 250 mg/kg in two daily doses by intraperitoneal injection to mice transgenic for a human beta globin locus YAC containing a silenced gamma globin gene. Reticulocytes, newly synthesized red blood cells, were counted daily and non-alpha globin in MRNA was analyzed by Rnase protection. Only 50 microliters of blood were removed daily for testing. A 5 to 10-fold increase in reticulocytes and a 1.7-2.4 fold increase in gamma globin mRNA was observed within one week of therapy with the three protype compounds. In contrast, control mice to which normal saline was administered, with the same degree of phlebotomy for testing, had no significant changes in reticulocytes or globin in mRNA.

in vivo = conditions: monkey, po
Procedure: (§1) Chronic indwelling venous and arterial catheters which were maintained using sterile technique for blood sampling. Compounds were administered by nasogastric tube and blood was collected to determine drug plasma levels at regular intervals following single oral doses. […] The test compounds were analyzed after ether extraction of the plasma, separation by HPLC, and quantitated by comparison to a spilled internal standard of heptanoic acid according to previously described methods.

anemic baboon = assay: Hematopoietic stimulation in an anemic phlebotomized baboon; format: in vivo; conditions: administered for five days, baboon phlebotomized 5% of blood volume daily, FIG. 13
Procedure: An increase in multiple blood cell lineages resulted when a prototype hemokine compound (α methylhydrocinnamic acid) was administered for five days to an anemic baboon, which was being phlebotomized 5% of its blood volume daily.

[4] = Pharmacokinetic studies after single oral doses in baboons; conditions: monkey, plasma
Procedure: as §1

[5] = Pharmacokinetics after single oral doses in human volunteers; format: in vivo; conditions: FIG. 4, in humans, oral doses of 40-500 mg/kg
Procedure: as §1

thalassemic patients = assay: Pulsed arginine butyrate infusion in thalassemic disorders; format: in vivo; conditions: 4 days with infusions about 8 hours per day, then 7 days of no treatment
Procedure: Individual pulses can be delivered to the patient continuously over a period of several hours, such as about 2, 4, 6, 8, 10, 12, 14 or 16 hours, or several days, such as 2, 3, 4, 5, 6, or 7 days, preferably from about 1 hour to about 24 hours and more preferably from about 3 hours to about 9 hours. Alternatively, periodic doses can be administered in a single bolus or a small number of injections of the composition over a short period of time, typically less than 1 or 2 hours. […] Substantially means that there are positive consequences that raise the patient's standard of living such as, for example, increased activity or mobility, fewer side-effects, fewer hospital stays or visits to the physician, or fewer transfusions.
Compositions administered in pulses have the surprising benefit of reducing the overall load of drug on the patient as the total amount of drug administered can be substantially less than that amount that has been therapeutically administered by conventional continuous therapy. […] Preferably, the therapeutically effective pulsed dose is less than the continuous dose, or less than one half, one third, one quarter, one fifth, one tenth or even one twentieth of the therapeutic continuous dose of the same composition or even less.

[6] = In vivo half-life of the composition
Procedure: The interval between pulses or the interval of no delivery is greater than 24 hours and preferably greater than 48 hours, and can be for even longer such as for 3, 4, 5, 6, 7, 8, 9 or 10 days, two, three or four weeks or even longer. As the results achieved may be surprising, the interval between pulses, when necessary, can be determined by one of ordinary skill in the art. Often, the interval between pulses can be calculated by administering another dose of the composition when the composition or the active component of the composition is no longer detectable in the patient prior to delivery of the next pulse. Intervals can also be calculated from the in vivo half-life of the composition. Intervals may be calculated as greater than the in vivo half-life, or 2, 3, 4, 5 and even 10 times greater the composition half-life.

[7] = 100 to 250 mg/kg in two daily doses, intraperitoneal, listed as DMB

Q: Which “increase in γ globin mRNA of bone marrow cells” value (bone marrow cells) does the source give for `Nc1ncn([C@@H]2O[C@H](CO)[C@@H](O)[C@H]2O)c(=O)n1` [AZA, 5-azacytidine] here?
A: The value was “five- to seven”.

Q: Which “system A transport of amino acids” value [1] does the source give for `CC(Cc1ccccc1)C(=O)O` (stereo not drawn) [ST 7, α-methylhydrocinnamic acid] here?
A: Its value is “do not significantly alter”.

Q: And the “increase in proliferation over 4 days” value (32D cells)?
A: Its value is 5 fold.

Q: And the “Mean BFU-E/culture 4 cultures averaged (per 0.2 million cells)” value [2]?
A: Its value is 223.

Q: And the “% Increase over control” value ([2]; BFU-E)?
A: The value was 32.4%.

Q: And the fold induction at 1000 µM (K562 cells)?
A: Its fold induction at 1000 µM is 2.4 to 26.

Q: And the “stimulating γ globin compared to control cells (ranking in words)” value (K562 cells; 1 mM)?
A: The value was “most active”.

Q: What about the “Radioactivity Alpha Globin (α) mRNA” value (K562 cells; 1 mM) of the same compound?
A: The value was 92979.

Q: And the “Radioactivity Fetal Globin (γ) mRNA” value (K562 cells; 1 mM)?
A: The value was 1648056.

Q: What about the γ/α (K562 cells; 1 mM) of the same compound?
A: The γ/α was 17.7.

Q: What about the “Reticulocytes Peak” value ([3]; 100 to 250 mg/kg in two daily doses, intraperitoneal, listed as MHCA) of the same compound?
A: Its value is 17.9 and 23.3.

Q: And the “Reticulocytes Day 0” value ([3]; baseline of the treated animal, listed as MHCA)?
A: Its value is 2.9 and 2.3.

Q: What about the half-life (in vivo) of the same compound?
A: Its half-life is 7.6 h.

Q: What about the “blood cell lineages” value (anemic baboon) of the same compound?
A: The value was “increase in both white blood cells and total hemoglobin”.

Q: For `CCC(C)(C)C(=O)O` [ST 20, 2,2 dimethylbutyric acid], which half-life [4] is on record?
A: Its half-life is 6.8 h.

Q: What about the “time for which plasma levels persisted in the millimolar range” value [5] of the same compound?
A: The value was “greater than 6 hours”.

Q: And the fold induction at 1000 µM (K562 cells; primer extension, 1 mM, three days of culture, FIG. 1)?
A: Its fold induction at 1000 µM is 2.4 to 26.

Q: And the “stimulating γ globin compared to control cells (ranking in words)” value (K562 cells; 1 mM)?
A: The value was “most active”.

Q: And the “Radioactivity Alpha Globin (α) mRNA” value (K562 cells; 1 mM)?
A: Its value is 178751.

Q: What about the “Radioactivity Fetal Globin (γ) mRNA” value (K562 cells; 1 mM) of the same compound?
A: The value was 1697936.

Q: And the γ/α (K562 cells; 1 mM)?
A: The γ/α was 9.5.

Q: And the “Reticulocytes Peak” value [3, 7]?
A: Its value is 17.7 and 21.3.

Q: And the “γ/γ + β mRNA Peak” value [3, 7]?
A: The value was 0.36 and 0.31.

Q: What about the “γ/γ + β mRNA Day 0” value ([3]; baseline of the treated animal, RNase protection, listed as DMB) of the same compound?
A: The value was 0.20 and 0.17.

Q: And the “Reticulocytes Day 0” value ([3]; baseline of the treated animal, listed as DMB)?
A: Its value is 2.4 and 4.2.

Q: What does the source list for arginine butyrate [reference compound]?
A: Radioactivity Alpha Globin (α) mRNA (K562 cells; 1 mM): 296132; Radioactivity Fetal Globin (γ) mRNA (K562 cells; 1 mM): 2176523; γ/α (K562 cells; 1 mM): 7.3; Fetal hemoglobin levels (thalassemic patients): rise substantially; half-life [6]: 0.25 h
